This is an account of results in ChEMBL document CHEMBL4431366, “Identification of a benzo imidazole thiazole derivative as the specific irreversible inhibitor of protein tyrosine phosphatase” (Bioorg Med Chem Lett, 2016).

SMILES strings stand for the structures. Calls of active or inactive are those of the source. The rule behind the calls is not given here. Bounds are passed on as bounds.

The target in assay [1] is T1, Tyrosine-protein phosphatase non-receptor type 5 (Homo sapiens, UniProt P54829).
T1 sequence (P54829 whole entry): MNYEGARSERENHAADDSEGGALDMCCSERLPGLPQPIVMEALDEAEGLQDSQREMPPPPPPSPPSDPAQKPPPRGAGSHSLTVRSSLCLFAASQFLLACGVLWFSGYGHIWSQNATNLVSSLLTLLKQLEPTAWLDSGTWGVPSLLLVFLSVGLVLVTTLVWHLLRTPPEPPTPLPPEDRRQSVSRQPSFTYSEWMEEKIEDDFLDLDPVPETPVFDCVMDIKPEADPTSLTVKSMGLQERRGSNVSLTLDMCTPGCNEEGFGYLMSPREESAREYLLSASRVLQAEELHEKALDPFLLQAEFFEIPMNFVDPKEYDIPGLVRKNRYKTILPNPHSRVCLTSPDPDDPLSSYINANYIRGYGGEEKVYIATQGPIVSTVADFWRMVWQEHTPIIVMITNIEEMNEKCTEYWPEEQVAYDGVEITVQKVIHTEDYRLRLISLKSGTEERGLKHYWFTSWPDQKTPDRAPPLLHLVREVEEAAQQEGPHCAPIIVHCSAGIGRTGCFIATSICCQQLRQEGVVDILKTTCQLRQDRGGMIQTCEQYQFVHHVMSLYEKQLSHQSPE
The assay can be described thus: (§1) Inhibition of N-terminal His-tagged STEP catalytic domain (unknown origin) expressed in Escherichia coli BL21 (DE3) cells using p-nitrophenyl phosphate as substrate.

Assay [2] deals with T2, Tyrosine-protein phosphatase non-receptor type 5 (Homo sapiens) (UniProt P54829).
T2 sequence (whole entry): T1 sequence (P54829 whole entry)
Described as §1.

The target of assay [3] is T3, Tyrosine-protein phosphatase non-receptor type 22 (Homo sapiens) (UniProt Q9Y2R2).
T3 sequence (whole entry): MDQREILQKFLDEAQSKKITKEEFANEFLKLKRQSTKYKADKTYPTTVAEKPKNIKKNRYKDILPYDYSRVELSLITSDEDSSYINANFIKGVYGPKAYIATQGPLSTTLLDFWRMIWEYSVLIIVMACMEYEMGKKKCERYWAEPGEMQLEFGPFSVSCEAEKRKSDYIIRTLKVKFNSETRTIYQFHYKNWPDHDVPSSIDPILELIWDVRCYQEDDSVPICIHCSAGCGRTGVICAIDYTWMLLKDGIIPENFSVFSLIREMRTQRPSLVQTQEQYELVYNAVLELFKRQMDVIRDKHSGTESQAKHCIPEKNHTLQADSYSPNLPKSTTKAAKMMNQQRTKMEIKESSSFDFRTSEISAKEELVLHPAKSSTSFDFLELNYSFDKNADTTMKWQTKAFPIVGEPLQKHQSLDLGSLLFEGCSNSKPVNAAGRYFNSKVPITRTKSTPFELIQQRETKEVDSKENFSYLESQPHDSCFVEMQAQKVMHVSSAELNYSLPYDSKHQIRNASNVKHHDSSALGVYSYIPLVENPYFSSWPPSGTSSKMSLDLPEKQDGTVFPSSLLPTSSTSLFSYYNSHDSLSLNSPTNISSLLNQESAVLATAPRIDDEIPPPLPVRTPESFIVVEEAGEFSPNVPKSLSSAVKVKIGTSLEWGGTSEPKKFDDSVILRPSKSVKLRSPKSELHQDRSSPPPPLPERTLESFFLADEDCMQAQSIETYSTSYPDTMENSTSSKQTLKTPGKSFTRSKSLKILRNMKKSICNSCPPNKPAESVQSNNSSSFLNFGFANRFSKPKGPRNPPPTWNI
Description: Time-dependent irreversible inhibition of N-terminal His-tagged LYP (1 to 294 residues) (unknown origin) expressed in Escherichia coli BL21 (DE3) cells preincubated with enzyme followed by p-nitrophenyl phosphate substrate addition.

Assay [4] has as its target T4, Tyrosine-protein phosphatase non-receptor type 9 (Homo sapiens) (UniProt P43378).
T4 sequence (whole entry): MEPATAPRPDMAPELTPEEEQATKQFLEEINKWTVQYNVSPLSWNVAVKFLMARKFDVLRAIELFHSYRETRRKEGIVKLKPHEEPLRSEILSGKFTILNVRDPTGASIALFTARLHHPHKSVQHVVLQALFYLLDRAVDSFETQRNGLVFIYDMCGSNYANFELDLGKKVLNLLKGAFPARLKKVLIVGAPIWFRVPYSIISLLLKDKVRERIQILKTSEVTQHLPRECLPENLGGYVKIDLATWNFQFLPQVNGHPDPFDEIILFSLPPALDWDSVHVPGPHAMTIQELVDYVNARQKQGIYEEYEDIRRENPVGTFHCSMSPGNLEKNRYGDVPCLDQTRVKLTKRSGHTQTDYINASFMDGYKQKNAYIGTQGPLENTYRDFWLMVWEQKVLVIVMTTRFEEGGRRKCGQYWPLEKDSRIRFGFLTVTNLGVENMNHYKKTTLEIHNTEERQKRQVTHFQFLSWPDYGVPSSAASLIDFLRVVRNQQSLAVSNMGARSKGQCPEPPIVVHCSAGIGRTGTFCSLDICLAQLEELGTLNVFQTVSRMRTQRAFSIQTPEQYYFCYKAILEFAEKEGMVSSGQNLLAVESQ
The assay can be described thus: Time-dependent irreversible inhibition of N-terminal His-tagged MEG2 (277 to 583 residues) (unknown origin) expressed in Escherichia coli BL21 (DE3) cells preincubated with enzyme followed by p-nitrophenyl phosphate substrate addition.

Assay [5] relates to Bacteria. Description: Time-dependent irreversible inhibition of N-terminal His-tagged bacterial YOPH expressed in Escherichia coli BL21 (DE3) cells preincubated with enzyme followed by p-nitrophenyl phosphate substrate addition.
The target in assay [6] is T5, Tyrosine-protein phosphatase non-receptor type 1 (Homo sapiens) (UniProt P18031).
T5 sequence (whole entry): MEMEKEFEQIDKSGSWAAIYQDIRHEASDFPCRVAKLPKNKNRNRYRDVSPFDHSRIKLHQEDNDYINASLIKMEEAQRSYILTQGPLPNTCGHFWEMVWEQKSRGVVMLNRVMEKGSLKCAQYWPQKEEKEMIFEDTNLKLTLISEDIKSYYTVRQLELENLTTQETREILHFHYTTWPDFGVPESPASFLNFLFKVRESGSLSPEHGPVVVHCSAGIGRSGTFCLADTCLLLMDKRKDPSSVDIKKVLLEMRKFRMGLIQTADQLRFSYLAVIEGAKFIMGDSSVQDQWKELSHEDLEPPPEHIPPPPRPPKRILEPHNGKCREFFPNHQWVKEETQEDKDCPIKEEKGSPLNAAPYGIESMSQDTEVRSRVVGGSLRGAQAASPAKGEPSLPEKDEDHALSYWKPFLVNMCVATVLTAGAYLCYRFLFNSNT
Description: Time-dependent irreversible inhibition of N-terminal His-tagged PTP1B (unknown origin) expressed in Escherichia coli BL21 (DE3) cells preincubated with enzyme followed by p-nitrophenyl phosphate substrate addition.

For assay [7], the target named is T6, Protein phosphatase 1A (Homo sapiens) (UniProt P35813).
T6 sequence (whole entry): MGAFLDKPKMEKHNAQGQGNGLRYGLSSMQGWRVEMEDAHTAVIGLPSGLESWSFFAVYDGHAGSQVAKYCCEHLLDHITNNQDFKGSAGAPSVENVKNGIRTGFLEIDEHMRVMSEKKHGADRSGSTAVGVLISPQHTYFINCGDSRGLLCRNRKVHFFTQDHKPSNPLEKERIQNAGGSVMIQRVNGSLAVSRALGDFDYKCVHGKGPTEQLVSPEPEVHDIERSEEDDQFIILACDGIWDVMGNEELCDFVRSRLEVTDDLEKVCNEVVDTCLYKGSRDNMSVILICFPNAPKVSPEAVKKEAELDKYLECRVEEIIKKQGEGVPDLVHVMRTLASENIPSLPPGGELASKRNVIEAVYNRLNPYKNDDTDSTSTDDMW
Description: Time-dependent irreversible inhibition of N-terminal His-tagged PPM1A (unknown origin) expressed in Escherichia coli BL21 (DE3) cells at 80 uM preincubated with enzyme followed by p-nitrophenyl phosphate substrate addition.

For assay [8], the target named is T7, Protein phosphatase 1B (Homo sapiens) (UniProt O75688).
T7 sequence (whole entry): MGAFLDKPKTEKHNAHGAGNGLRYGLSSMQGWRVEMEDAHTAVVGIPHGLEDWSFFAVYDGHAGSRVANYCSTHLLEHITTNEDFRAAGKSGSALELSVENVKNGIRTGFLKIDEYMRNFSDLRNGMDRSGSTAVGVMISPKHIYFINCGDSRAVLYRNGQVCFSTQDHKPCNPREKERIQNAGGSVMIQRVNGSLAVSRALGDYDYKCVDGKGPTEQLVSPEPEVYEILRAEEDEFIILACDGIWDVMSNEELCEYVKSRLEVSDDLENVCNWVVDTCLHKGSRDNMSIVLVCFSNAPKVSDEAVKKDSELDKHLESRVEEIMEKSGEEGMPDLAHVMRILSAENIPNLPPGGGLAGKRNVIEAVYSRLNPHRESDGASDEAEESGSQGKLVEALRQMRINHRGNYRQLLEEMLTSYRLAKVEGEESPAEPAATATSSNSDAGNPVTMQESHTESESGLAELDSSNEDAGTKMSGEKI
The assay can be described thus: Time-dependent irreversible inhibition of N-terminal His-tagged PPM1B (unknown origin) expressed in Escherichia coli BL21 (DE3) cells at 80 uM preincubated with enzyme followed by p-nitrophenyl phosphate substrate addition.

In assay [9] the target is T8, Protein phosphatase 1G (Homo sapiens) (UniProt O15355).
T8 sequence (whole entry): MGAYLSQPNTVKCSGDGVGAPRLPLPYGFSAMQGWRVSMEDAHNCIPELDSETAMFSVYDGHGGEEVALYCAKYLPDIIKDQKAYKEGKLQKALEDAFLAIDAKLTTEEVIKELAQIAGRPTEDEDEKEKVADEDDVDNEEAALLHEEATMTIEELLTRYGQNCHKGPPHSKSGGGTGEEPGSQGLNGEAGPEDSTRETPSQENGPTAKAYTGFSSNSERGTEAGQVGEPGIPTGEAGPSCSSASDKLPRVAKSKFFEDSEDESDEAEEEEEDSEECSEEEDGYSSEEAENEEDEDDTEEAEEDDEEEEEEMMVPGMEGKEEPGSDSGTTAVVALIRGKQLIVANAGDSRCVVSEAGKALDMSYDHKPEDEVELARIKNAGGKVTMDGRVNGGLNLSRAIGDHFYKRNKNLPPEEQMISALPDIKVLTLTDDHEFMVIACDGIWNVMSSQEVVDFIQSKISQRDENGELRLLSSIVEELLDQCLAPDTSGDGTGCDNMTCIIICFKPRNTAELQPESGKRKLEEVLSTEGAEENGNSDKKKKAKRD
The assay can be described thus: Time-dependent irreversible inhibition of N-terminal His-tagged PPM1G (unknown origin) expressed in Escherichia coli BL21 (DE3) cells at 80 uM preincubated with enzyme followed by p-nitrophenyl phosphate substrate addition.

The target in assay [10] is T2, Tyrosine-protein phosphatase non-receptor type 5 (Homo sapiens). Description: (§2) Time-dependent irreversible inhibition of N-terminal His-tagged STEP catalytic domain (unknown origin) expressed in Escherichia coli BL21 (DE3) cells preincubated with enzyme followed by p-nitrophenyl phosphate substrate addition.
The target in assay [11] is T1, Tyrosine-protein phosphatase non-receptor type 5. The assay is described as §2.
In assay [12] the target is T2, Tyrosine-protein phosphatase non-receptor type 5 (Homo sapiens).
Description: Time-dependent irreversible inhibition of N-terminal His-tagged STEP catalytic domain (unknown origin) expressed in Escherichia coli BL21 (DE3) cells at 100 uM preincubated with enzyme followed by p-nitrophenyl phosphate substrate addition

The IC50 is the concentration that gives 50% inhibition. A lower IC50 goes with greater potency in that assay. `O=C(O)c1cccc(/C=c2/sc3nc4ccccc4n3c2=O)c1`: the IC50 in [1] is > 300 µM.

On to `Cc1cc2cc(OCC(=O)O)ccc2n1-c1ccc(Cl)cc1`, for which the IC50 in assay [1] was > 300 µM.

On to `O=C(O)c1cc2ccoc2cc(C(=O)O)c1=O`, for which, in [1], the IC50 was > 300 µM.

For `Cc1cc(/C=c2/sc3nc4ccccc4n3c2=O)c(C)n1-c1cccc(C(=O)O)c1`, the inhibition result in assay [2] is “Dose-dependent effect”. In assay [1], this molecule displayed an IC50 of 8.3 µM. Also, the K in assay [3] worked out at 0.0272 min⁻¹; in [4], 0.0463 min⁻¹; in [5], 0.0486 min⁻¹; in [6] it was 0.0859 min⁻¹; in [10], 0.0439 min⁻¹. Besides, the TDI entry in assay [7], in [8], in [9] and in assay [12] was “Active” each time. Besides, the Kinact in assay [10] is 0.068 s⁻¹. Moreover, the Ki in assay [11] came out at 21.6 µM.

Regarding `Cc1ccc([N+](=O)[O-])cc1-c1ccc(/C=c2\sc3nc4ccccc4n3c2=O)o1`, in assay [1], the IC50 is > 300 µM.

On to `COc1cc(/C=c2/sc3nc4ccccc4n3c2=O)cc(Cl)c1OCc1cccc(C(=O)O)c1`, for which the IC50 in assay [1] is > 300 µM.

In [1], `O=C(O)c1ccc(N2C(=O)c3ccc(Br)cc3C2=O)cc1O` showed a half-maximal inhibitory concentration (IC50) of 273 µM.

As for `O=C(CSc1nc2cc(Cl)ccc2o1)Nc1ccc(C(=O)O)cc1`, in [1], the IC50 was > 300 µM.
